System: hCoV-229E
Assay: microbe, parasite or virus in culture
Conditions: Human coronavirus 229E, MRC5, read-out: cell viability

Q: Which viability at 5 µM does the source give for CCC(CC)COC(=O)[C@H](C)N[P@](=O)(OC[C@H]1O[C@@](C#N)(c2ccc3c(N)ncnn23)[C@H](O)[C@@H]1O)Oc1ccccc1 [remdesivir] here?
A: 92%

— patent publication US20210246019A1, “PEPTIDE/LIPID-ASSOCIATED NUCLEIC ACIDS (PLANA) FOR NUCLEIC ACID DELIVERY” (priority 2020, published 2021)
